In ChEMBL document CHEMBL1201862, “PubChem BioAssay data set” (2004):
Calls of active or inactive are those of the source.

Legend:
[1] = biological target: ATP-dependent translocase ABCB1 (Homo sapiens, UniProt P08183); experiment: ABCB1 efflux pump inhibitor potency, dose response, Jurkat-DNR cells, JC-1, flow cytometry (AID 1689); format: functional
[2] = biological target: Broad substrate specificity ATP-binding cassette transporter ABCG2 (Homo sapiens, UniProt Q9UNQ0); experiment: ABCG2 efflux pump inhibitors, dose response, Ig-MXP3 cells, flow cytometry (AID 1690); format: functional
Broad substrate specificity ATP-binding cassette transporter ABCG2, sequence (Q9UNQ0 whole entry, the tested form may be a part): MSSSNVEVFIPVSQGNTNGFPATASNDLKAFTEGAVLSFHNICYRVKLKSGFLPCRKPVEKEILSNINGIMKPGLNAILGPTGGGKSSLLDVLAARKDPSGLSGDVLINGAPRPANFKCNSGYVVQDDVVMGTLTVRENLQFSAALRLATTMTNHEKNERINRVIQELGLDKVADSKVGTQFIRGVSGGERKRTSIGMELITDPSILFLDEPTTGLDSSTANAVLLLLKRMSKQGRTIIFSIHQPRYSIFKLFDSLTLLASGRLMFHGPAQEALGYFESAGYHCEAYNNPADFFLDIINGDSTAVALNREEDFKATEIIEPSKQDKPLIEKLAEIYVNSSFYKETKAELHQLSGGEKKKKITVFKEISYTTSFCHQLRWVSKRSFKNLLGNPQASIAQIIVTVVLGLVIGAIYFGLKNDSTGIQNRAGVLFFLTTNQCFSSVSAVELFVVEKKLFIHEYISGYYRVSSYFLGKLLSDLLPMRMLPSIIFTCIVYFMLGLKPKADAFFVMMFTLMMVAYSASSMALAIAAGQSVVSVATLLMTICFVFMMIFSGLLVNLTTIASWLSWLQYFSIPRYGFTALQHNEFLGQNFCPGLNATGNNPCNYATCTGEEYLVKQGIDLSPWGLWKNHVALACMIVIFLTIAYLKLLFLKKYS

[3] = biological target: T1, Carboxy-terminal domain RNA polymerase II polypeptide A small phosphatase 1 (Homo sapiens, UniProt Q9GZU7); experiment: inhibitors of CTDSP1, concentration-response testing, biochemical assay, absorbance-based, actives from ultra-high-throughput screening (AID 540297); format: functional
T1 sequence (Q9GZU7 whole entry): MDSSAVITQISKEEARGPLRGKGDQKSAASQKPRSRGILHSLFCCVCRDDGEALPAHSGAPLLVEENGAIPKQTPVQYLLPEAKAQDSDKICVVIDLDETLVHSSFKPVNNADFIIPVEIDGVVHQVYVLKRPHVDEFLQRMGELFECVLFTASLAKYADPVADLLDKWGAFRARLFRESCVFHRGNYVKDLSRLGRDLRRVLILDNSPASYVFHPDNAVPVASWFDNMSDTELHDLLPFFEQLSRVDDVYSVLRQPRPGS

[4] = biological target: T2, Low molecular weight phosphotyrosine protein phosphatase (Homo sapiens, UniProt P24666); format: functional; settings: read-out: IC50_Mean
T2 sequence (P24666 whole entry): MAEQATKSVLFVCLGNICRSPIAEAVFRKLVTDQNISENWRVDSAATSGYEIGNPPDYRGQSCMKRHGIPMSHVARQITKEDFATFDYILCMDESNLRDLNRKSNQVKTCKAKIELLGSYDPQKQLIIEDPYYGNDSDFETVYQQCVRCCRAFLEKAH

[5] = biological target: T2, Low molecular weight phosphotyrosine protein phosphatase; format: functional; settings: read-out: IC50_Mean; remark: listed apart in the source
BJ [6] = experiment: cytotoxicity toward BJ-TERT fibroblasts, dose response, cell-based, RAS-independent, luminescence (AID 1933); format: functional; settings: Homo sapiens
BJ [7] = experiment: cells; format: functional, cell-based; settings: Homo sapiens
[8] = growth suppression of PTEN-null colon cells, dose response, cell-based, HCT116 PTEN knockout (AID 1047); format: functional;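 further: HCT116 colon tumor cells with PTEN knocked out; cells exposed to compound for 60 hours before readout; potency for loss of cell viability measured by luminescence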
[9] = growth suppression of beta-catenin-knockout colon cells, dose response, cell-based, HCT116, human colon tumor (AID 1045); format: functional;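 further: HCT116 colon tumor cells with beta catenin knocked out; cells exposed to compound for 60 hours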
BJ [10] = experiment: cytotoxicity toward BJ-TERT-LT-ST fibroblasts, dose response, cell-based, RAS-independent, luminescence (AID 1935); format: functional; settings: Homo sapiens;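 further: BJ fibroblasts immortalized with TERT plus LT and ST oncogenes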
[11] = cytotoxicity toward DRD oncogenic fibroblasts, dose response, cell-based, non-viral oncogenic, luminescence (AID 1934); format: functional; settings: Homo sapiens
Hexokinase HKDC1 = biological target: T3, Hexokinase HKDC1 (Homo sapiens, UniProt Q2TB90); experiment: HKDC1 hexokinase inhibitors, dose response, biochemical, W721R variant (AID 504729); format: functional
T3 sequence (Q2TB90 whole entry): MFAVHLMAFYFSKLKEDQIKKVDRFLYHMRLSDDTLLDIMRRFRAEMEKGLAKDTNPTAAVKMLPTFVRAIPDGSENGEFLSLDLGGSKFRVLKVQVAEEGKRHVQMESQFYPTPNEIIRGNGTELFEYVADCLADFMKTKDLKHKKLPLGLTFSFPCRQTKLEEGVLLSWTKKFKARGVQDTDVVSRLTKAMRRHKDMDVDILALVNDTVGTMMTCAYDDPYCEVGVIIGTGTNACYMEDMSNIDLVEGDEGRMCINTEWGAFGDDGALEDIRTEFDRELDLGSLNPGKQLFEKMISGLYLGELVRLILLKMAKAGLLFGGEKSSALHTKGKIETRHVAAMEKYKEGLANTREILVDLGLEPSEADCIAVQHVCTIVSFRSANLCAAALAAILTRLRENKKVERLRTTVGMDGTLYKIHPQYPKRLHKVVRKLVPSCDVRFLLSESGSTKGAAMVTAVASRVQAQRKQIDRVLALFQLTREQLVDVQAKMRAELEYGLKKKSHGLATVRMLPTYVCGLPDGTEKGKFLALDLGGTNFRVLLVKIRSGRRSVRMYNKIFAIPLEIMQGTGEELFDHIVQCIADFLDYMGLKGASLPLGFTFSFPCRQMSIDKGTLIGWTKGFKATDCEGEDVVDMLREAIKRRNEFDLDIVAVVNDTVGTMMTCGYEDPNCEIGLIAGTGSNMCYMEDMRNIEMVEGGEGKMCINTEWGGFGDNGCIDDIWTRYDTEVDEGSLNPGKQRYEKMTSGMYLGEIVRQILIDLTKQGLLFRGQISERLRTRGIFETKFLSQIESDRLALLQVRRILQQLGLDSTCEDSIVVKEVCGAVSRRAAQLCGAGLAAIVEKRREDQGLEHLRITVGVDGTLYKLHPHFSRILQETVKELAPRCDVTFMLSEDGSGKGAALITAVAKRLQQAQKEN

[12] = biological target: T4, Replicative DNA helicase DnaB (Mycobacterium tuberculosis, UniProt P9WMR3); experiment: DnaB intein splicing inhibitors, dose response, biochemical, cell-free fluorescence (AID 449749); format: functional
T4 sequence (P9WMR3 whole entry): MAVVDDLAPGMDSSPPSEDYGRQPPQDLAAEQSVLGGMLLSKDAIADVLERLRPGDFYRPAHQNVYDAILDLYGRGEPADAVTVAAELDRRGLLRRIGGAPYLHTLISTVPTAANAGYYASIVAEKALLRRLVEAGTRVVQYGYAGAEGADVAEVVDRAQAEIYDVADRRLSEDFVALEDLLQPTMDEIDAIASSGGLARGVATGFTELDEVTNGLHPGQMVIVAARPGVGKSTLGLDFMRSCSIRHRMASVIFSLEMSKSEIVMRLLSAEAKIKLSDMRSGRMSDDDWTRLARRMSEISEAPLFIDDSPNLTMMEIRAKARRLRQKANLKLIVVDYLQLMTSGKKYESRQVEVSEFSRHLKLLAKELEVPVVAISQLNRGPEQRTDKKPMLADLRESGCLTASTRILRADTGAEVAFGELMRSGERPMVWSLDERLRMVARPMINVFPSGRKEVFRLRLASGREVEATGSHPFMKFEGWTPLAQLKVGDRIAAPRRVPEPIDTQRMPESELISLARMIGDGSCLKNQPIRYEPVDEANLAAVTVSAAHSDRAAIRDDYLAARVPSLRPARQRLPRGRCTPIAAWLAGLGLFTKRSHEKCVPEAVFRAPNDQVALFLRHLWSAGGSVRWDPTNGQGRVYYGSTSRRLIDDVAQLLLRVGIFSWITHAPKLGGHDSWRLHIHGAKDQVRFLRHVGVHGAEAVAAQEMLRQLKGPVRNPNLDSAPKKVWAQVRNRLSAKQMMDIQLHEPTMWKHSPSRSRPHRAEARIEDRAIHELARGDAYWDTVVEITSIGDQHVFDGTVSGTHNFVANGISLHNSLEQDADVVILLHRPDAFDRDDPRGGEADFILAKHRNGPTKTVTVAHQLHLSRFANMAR

Protein RecA = biological target: T5, Protein RecA (Mycobacterium tuberculosis, UniProt P9WHJ3); experiment: Fluorescence Cell-Free Homogeneous Dose Retest to Identify Inhibitors of RecA-Intein Splicing Activity. [Related pubchem assays (depositor defined):AID2097, AID2223, AID489010, AID492950]; format: functional
T5 sequence (P9WHJ3 whole entry): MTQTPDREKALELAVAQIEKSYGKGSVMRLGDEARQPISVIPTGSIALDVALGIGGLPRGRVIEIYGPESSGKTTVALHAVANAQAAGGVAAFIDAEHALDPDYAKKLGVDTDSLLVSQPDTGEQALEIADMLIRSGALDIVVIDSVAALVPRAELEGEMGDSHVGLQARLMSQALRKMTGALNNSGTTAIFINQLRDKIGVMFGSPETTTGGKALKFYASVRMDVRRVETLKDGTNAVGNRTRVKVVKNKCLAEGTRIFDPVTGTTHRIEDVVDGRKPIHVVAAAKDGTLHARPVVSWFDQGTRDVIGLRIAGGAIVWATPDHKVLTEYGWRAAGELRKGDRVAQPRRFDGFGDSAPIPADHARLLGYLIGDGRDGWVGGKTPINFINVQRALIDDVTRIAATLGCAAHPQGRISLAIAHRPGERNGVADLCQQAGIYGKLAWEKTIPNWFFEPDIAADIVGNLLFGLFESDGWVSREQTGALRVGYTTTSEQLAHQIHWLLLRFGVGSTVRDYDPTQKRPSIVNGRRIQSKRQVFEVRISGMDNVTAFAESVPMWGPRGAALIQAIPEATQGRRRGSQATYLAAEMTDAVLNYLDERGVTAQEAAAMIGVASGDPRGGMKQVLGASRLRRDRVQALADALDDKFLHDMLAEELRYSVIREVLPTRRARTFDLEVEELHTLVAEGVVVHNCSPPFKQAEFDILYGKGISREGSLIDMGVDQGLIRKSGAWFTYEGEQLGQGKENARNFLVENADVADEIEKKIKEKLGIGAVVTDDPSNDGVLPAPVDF

[13] = biological target: T6, Mitochondrial peptide methionine sulfoxide reductase (Bos taurus, UniProt P54149); format: functional;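 further: absorbance read-out, biochemical high-throughput dose-response screen for MsrA inhibitors, confirmatory; recombinant bovine MsrA coupled to E. coli TrxB with NADPH and selenocystamine; potency is for inhibitors of MsrA activity on DMSO substrate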
T6 sequence (P54149 whole entry): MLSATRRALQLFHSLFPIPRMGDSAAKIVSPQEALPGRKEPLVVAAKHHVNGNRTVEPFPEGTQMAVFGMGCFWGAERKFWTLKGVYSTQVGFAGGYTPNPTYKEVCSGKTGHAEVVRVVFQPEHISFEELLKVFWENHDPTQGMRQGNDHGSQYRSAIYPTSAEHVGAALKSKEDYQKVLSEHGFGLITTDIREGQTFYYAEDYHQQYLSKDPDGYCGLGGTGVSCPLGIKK

[14] = biological target: Long-chain-fatty-acid--AMP ligase FadD28 (Mycobacterium tuberculosis, UniProt P9WQ59); experiment: Fluorescence polarization aasay to screen for inhibitors that compete for the binding of FadD28 to a bisubstrate Measured in Biochemical System Using Plate Reader - 2147-01_Inhibitor_Dose_CherryPick_Activity.; format: functional, Mycobacterium tuberculosis H37Rv
Long-chain-fatty-acid--AMP ligase FadD28, sequence (P9WQ59 whole entry): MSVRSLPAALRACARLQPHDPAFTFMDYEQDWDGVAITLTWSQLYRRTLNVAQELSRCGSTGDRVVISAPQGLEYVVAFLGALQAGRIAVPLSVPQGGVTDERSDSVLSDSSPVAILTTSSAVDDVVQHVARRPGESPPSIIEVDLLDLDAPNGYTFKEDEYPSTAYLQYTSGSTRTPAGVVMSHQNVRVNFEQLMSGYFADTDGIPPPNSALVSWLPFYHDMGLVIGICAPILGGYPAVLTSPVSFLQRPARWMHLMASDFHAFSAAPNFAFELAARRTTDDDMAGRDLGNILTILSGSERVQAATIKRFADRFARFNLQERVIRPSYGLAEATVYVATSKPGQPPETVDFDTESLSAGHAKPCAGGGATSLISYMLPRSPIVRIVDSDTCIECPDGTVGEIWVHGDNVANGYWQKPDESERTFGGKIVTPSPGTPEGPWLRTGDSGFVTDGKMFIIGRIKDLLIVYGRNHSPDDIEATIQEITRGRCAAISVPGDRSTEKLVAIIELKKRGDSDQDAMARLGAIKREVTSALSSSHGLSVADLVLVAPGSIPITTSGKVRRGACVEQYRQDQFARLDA

Beta-lactamase [15] = biological target: Beta-lactamase (Salmonella choleraesuis (strain SC-B67), UniProt Q5J463); experiment: Epi-absorbance-based counterscreen for selective VIM-2 inhibitors: dose response biochemical high throughput screening assay to identify inhibitors of TEM-1 serine-beta-lactamase.
Beta-lactamase (Salmonella choleraesuis (strain SC-B67), UniProt Q5J463), sequence (Q5J463 whole entry): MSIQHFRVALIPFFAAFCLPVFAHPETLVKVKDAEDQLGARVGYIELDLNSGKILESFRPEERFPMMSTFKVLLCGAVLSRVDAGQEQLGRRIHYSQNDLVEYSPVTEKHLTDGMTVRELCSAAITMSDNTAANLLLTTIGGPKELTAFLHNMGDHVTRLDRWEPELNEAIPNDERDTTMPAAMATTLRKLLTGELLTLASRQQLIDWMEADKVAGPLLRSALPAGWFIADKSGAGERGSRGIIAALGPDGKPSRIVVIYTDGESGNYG

Beta-lactamase [16] = biological target: T7, Beta-lactamase (Pseudomonas aeruginosa, UniProt Q79MP6); experiment: IMP-1 metallo-beta-lactamase inhibitors, dose response, selectivity assay for VIM-2 inhibitor project, biochemical, epi-absorbance (AID 1920)
T7 sequence (Q79MP6 whole entry): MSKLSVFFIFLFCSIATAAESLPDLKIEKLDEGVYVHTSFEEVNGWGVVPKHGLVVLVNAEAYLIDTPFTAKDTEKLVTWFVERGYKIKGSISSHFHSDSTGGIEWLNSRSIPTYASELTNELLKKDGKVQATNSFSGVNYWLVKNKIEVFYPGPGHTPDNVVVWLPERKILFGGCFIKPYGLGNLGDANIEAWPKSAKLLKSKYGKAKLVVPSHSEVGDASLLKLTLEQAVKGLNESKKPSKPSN

Beta-lactamase [17] = biological target: T7, Beta-lactamase; experiment: […] counterscreen for selective VIM-2 inhibitors: dose response biochemical high throughput screening assay to identify inhibitors of IMP-1 metallo-beta-lactamase.
[18] = biological target: DNA dC->dU-editing enzyme APOBEC-3A (Homo sapiens, UniProt P31941); experiment: APOBEC3A DNA deaminase inhibitors, dose response, biochemical (AID 504722); format: functional
DNA dC->dU-editing enzyme APOBEC-3A, sequence (P31941 whole entry): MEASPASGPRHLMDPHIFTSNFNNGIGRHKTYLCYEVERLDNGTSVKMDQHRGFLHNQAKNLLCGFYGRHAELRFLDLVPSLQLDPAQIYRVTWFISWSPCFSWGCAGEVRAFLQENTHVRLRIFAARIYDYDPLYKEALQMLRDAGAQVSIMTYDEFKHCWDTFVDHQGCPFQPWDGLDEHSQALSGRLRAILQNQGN

[19] = biological target: DNA dC->dU-editing enzyme APOBEC-3G (Homo sapiens, UniProt Q9HC16); experiment: Dose Response confirmation of small molecule APOBEC3G DNA Deaminase Inhibitors via a fluorescence-based single-stranded DNA deaminase assay. [Related pubchem assays (depositor defined):AID493012, AID493028]; format: functional
DNA dC->dU-editing enzyme APOBEC-3G, sequence (Q9HC16 whole entry): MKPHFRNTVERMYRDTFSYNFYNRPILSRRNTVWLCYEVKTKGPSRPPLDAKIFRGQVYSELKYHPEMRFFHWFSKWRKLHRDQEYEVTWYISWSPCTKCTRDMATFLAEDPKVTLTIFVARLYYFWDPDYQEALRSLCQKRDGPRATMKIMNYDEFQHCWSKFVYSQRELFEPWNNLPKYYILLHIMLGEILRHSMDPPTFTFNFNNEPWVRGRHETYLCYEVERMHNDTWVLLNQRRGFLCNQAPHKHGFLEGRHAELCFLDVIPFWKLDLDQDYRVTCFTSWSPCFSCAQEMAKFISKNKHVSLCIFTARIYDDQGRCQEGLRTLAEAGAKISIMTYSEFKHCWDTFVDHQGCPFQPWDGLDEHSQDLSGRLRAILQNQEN

ATP-dependent translocase ABCB1, sequence (P08183 whole entry): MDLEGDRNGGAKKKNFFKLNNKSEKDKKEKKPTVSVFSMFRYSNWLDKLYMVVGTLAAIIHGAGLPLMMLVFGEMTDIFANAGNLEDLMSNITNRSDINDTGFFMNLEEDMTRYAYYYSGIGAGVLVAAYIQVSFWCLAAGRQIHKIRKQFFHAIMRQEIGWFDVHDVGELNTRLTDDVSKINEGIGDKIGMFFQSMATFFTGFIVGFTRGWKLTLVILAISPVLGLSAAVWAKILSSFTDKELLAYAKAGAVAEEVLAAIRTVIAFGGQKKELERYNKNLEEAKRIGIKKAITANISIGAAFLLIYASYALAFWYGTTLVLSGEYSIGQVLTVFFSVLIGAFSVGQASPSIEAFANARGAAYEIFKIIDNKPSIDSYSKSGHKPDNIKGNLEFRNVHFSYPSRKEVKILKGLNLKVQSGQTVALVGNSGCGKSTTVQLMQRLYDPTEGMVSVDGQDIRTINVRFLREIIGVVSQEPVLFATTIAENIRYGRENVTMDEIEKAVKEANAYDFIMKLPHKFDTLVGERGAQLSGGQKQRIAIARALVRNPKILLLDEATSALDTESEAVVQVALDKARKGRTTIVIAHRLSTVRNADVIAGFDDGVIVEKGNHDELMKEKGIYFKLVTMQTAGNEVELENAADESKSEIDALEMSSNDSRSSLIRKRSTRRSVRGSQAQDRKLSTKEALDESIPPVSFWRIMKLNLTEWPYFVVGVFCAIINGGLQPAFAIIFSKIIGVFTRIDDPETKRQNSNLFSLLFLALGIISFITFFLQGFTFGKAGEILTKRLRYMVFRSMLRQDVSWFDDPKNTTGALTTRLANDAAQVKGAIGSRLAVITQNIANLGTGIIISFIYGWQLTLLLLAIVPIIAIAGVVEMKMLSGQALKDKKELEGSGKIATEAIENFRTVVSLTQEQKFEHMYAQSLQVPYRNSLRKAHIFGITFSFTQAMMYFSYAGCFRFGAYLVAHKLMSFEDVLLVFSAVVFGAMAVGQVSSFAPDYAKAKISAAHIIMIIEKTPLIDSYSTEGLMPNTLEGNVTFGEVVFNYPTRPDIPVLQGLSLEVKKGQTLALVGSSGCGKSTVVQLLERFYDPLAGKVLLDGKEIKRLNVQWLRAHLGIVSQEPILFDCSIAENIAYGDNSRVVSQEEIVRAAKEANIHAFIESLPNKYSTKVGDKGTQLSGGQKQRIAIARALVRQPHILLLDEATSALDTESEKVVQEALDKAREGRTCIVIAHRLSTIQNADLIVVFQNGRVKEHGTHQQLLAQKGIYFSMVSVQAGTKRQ

## CN(C)c1ccc(P(=O)(Nc2cccc(C(F)(F)F)c2)N2CCOCC2)c(NC(=O)c2cccs2)c1 (stereo unspecified)
[1]
  EC50: 0.286 µM (active)
[2]
  EC50: 1.21 µM (inactive)

## Cc1cc2oc(C(=O)NCCc3ccc(S(N)(=O)=O)cc3)c(C)c2cc1C
[3]
  IC50: > 80 µM (inactive)
[4]
  IC50: 29.9 µM (inactive)
[5]
  IC50: 48.1 µM (inactive)

## O=C(C1=C(c2ccccc2)C(=O)c2ccccc2C1=O)c1ccccc1
BJ [6]
  EC50: 5.95 µM (inconclusive)
BJ [7]
  EC50: 7.17 µM (active)
[8]
  EC50: 2.73 µM (active)
[9]
  EC50: 2.72 µM (active)
BJ [10]
  EC50: 8.65 µM (inconclusive)
[11]
  EC50: > 150 µM (not active)
Hexokinase HKDC1
  IC50: 10.1 µM (active)
[12]
  AC50: 8.2 µM (active)
Protein RecA
  EC50: 0.862 µM (active)
[13]
  IC50: 13.8 µM (inactive)

## COc1ccc(OC)c(C2=NOC(C(=O)Nc3cccc(C(C)=O)c3)C2)c1 (stereo unspecified)
[14]
  AC50: 34.6 µM (active)

## C=C(C)Cn1c(-c2cccs2)n[nH]c1=S
Beta-lactamase [15]
  IC50: > 59.6 µM (inactive)
Beta-lactamase [16]
  IC50: > 59.6 µM (inactive)
Beta-lactamase [17]
  IC50: > 59.6 µM (inactive)
[18]
  IC50: > 100 µM (inactive)
[19]
  IC50: 7.53 µM (active)
